The source made the active and inactive calls. No cut-off for these calls is given here.
Biological target: Transcription factor p65 (Mus musculus) (UniProt Q04207)
Assay: Inhibition of TNFalpha/IL-1beta-induced NFkB p65 translocation from cytosol to nucleus in mouse MIN6 cells at 50 uM after 30 mins by immunofluorescence based high content imaging analysis
Format: cell-based

Chain of Transcription factor p65 (Mus musculus) (Q04207 whole entry): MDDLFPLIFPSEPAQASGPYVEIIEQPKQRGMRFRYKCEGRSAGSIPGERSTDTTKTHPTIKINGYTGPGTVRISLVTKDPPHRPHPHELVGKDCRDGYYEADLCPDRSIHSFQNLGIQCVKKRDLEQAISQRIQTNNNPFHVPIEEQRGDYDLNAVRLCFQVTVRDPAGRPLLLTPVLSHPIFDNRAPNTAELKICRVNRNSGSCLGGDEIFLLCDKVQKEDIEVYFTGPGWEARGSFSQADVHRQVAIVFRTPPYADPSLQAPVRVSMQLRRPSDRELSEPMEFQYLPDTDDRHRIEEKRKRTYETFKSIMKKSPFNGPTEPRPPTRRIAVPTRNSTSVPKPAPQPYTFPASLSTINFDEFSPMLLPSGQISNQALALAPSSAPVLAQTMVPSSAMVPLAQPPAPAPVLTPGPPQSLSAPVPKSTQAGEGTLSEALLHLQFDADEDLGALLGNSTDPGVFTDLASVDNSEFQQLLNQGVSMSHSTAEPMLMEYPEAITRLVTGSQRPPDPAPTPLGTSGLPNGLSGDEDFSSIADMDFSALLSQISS

Compound: COc1cc(O)cc(O)c1C(=O)/C=C/c1ccc(O)cc1
- inhibition: Active

From ChEMBL document CHEMBL4330156, “Amides and Flavonoids from the Fruit and Leaf Extracts of Melodorum siamensis” (J Nat Prod, 2019)
